Test results published in paper PMC8213057, “Targeting ALK2: An Open Science Approach to Developing Therapeutics for the Treatment of Diffuse Intrinsic Pontine Glioma” (Journal of Medicinal Chemistry, 2020).

How the values were obtained:
c-Src = c-Src (Homo sapiens, UniProt P12931); assay: biochemical; conditions: read-out: % enzyme activity, 1 μM; Run 1, Run 2
CDK19/cyclin C = CDK19/cyclin C (Homo sapiens, UniProt Q9BWU1); conditions: 1 μM; Run 1, Run 2
NEK7 = NEK7 (Homo sapiens, UniProt Q8TDX7); assay: biochemical; conditions: read-out: % enzyme activity, 1 μM; Run 1, Run 2
Chain of NEK7 (Q8TDX7 whole entry): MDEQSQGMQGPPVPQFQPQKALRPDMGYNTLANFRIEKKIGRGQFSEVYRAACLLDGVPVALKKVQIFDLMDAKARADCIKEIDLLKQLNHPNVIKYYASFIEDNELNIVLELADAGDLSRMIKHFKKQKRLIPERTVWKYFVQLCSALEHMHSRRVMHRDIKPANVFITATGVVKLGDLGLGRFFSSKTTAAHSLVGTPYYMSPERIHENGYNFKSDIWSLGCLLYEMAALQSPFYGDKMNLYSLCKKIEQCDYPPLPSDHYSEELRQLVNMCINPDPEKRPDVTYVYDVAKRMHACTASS

LATS1 = target: T1, LATS1 (Homo sapiens, UniProt O95835); conditions: 1 μM; Run 1, Run 2
T1 sequence (O95835 1-1130): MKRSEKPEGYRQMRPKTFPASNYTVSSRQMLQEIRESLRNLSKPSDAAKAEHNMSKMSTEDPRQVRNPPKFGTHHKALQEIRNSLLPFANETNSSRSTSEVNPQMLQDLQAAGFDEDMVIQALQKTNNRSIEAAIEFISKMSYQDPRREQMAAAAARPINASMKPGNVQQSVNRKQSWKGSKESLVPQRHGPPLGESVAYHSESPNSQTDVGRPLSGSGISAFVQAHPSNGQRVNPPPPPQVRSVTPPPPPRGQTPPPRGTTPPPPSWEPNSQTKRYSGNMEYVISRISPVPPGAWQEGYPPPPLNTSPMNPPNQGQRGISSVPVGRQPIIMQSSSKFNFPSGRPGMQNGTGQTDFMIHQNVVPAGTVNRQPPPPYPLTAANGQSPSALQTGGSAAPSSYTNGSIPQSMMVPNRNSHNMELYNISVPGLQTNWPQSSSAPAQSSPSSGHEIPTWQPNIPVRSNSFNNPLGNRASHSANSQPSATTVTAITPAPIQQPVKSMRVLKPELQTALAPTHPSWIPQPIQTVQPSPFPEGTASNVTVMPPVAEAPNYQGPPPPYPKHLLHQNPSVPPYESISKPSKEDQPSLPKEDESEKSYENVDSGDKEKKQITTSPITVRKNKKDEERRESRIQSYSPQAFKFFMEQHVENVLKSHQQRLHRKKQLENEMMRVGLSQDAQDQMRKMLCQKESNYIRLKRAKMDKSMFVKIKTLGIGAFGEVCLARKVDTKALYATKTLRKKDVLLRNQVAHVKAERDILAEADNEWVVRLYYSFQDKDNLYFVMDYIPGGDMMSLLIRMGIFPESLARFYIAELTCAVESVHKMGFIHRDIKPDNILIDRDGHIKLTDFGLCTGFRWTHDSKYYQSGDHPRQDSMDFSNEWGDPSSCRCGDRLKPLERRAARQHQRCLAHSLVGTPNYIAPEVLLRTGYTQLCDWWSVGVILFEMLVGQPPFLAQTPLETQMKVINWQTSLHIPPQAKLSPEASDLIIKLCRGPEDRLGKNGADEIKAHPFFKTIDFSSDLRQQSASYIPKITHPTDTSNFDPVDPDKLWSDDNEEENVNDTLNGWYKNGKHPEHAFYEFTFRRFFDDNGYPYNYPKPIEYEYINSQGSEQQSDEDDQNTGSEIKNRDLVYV

CDK5/p35 = CDK5/p35 (Homo sapiens, UniProt Q00535); conditions: 1 μM; Run 1, Run 2
Chain of CDK5/p35 (Q00535 whole entry): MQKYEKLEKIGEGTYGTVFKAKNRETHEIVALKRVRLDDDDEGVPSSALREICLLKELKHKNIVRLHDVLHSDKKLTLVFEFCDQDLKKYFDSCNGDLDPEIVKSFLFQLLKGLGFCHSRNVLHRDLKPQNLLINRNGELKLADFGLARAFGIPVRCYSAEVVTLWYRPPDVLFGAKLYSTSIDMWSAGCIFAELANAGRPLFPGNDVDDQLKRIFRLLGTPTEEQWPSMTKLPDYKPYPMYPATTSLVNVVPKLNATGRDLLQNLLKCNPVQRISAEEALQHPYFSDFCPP
Chain of CDK5/p35 (Q15078 whole entry partner): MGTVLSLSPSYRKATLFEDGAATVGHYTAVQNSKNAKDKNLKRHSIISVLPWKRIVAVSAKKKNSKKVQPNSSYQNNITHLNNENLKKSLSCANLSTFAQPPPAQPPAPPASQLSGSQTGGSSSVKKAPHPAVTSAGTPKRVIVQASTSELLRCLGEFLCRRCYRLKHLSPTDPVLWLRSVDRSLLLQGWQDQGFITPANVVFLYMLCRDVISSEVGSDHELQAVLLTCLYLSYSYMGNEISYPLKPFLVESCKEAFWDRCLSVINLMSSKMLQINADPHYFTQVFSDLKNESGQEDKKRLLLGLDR

CK1g1 = CK1g1 (Homo sapiens, UniProt Q9HCP0); conditions: 1 μM; Run 1, Run 2
Chain of CK1g1 (Q9HCP0 whole entry): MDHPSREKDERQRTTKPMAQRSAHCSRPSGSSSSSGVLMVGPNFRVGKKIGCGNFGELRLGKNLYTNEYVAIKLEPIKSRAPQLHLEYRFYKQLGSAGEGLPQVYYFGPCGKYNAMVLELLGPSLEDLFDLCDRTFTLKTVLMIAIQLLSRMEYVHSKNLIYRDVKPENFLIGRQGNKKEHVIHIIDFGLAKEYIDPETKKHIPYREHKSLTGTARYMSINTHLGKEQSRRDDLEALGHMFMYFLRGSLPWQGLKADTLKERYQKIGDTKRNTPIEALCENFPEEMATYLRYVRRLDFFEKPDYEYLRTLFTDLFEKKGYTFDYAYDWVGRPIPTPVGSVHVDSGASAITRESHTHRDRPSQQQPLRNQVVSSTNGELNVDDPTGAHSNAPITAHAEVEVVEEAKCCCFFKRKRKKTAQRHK

PKCiota = target: T2, PKCiota (Homo sapiens, UniProt P41743); assay: biochemical; conditions: read-out: % enzyme activity, 1 μM; Run 1, Run 2
T2 sequence (P41743 1-596): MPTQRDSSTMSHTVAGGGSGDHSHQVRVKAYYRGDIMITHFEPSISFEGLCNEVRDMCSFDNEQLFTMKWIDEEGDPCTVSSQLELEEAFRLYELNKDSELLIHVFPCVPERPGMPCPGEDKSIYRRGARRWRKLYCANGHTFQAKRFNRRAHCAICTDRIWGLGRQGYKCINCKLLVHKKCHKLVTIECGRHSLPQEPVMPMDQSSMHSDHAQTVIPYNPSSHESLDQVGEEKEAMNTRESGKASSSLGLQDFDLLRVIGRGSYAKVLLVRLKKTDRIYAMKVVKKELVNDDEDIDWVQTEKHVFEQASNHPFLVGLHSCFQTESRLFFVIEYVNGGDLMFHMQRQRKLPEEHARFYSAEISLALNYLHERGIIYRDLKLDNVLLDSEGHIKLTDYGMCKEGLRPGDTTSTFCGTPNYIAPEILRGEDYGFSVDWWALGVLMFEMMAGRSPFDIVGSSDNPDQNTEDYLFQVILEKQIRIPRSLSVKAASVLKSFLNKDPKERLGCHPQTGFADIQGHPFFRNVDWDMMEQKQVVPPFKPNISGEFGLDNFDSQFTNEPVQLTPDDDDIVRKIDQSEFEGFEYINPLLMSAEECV

CAMK1a = CAMK1a (Homo sapiens, UniProt Q14012); conditions: 1 μM; Run 1, Run 2
Chain of CAMK1a (Q14012 whole entry): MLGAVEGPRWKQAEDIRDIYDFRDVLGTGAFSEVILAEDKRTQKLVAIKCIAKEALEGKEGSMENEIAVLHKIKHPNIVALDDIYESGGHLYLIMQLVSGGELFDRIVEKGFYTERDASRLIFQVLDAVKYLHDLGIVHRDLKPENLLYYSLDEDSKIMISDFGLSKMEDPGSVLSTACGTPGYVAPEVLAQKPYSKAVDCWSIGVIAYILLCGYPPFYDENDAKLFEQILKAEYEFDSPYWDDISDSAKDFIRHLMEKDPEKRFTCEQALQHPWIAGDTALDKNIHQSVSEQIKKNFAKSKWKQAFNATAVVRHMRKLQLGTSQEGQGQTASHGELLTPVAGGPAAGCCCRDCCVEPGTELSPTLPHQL

GRK7 = target: T3, GRK7 (Homo sapiens, UniProt Q8WTQ7); assay: biochemical; conditions: read-out: % enzyme activity, 1 μM; Run 1, Run 2
T3 sequence (Q8WTQ7 1-553): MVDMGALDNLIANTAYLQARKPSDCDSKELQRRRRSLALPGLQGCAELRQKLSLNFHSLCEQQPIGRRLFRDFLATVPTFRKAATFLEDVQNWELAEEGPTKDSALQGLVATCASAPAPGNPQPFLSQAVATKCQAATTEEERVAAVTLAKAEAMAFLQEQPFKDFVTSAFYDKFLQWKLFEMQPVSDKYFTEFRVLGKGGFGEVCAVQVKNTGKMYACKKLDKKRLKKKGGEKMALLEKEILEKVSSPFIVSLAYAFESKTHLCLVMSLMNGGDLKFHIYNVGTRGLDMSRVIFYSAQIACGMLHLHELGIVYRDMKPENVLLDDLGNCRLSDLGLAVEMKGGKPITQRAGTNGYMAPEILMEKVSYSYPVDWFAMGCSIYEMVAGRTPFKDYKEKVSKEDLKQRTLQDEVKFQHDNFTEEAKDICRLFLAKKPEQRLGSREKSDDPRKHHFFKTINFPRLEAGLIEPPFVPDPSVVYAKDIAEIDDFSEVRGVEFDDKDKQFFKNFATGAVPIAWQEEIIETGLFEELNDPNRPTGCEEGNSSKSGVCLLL

FGR = FGR (Homo sapiens, UniProt P09769); conditions: 1 μM; Run 1, Run 2
Chain of FGR (P09769 whole entry): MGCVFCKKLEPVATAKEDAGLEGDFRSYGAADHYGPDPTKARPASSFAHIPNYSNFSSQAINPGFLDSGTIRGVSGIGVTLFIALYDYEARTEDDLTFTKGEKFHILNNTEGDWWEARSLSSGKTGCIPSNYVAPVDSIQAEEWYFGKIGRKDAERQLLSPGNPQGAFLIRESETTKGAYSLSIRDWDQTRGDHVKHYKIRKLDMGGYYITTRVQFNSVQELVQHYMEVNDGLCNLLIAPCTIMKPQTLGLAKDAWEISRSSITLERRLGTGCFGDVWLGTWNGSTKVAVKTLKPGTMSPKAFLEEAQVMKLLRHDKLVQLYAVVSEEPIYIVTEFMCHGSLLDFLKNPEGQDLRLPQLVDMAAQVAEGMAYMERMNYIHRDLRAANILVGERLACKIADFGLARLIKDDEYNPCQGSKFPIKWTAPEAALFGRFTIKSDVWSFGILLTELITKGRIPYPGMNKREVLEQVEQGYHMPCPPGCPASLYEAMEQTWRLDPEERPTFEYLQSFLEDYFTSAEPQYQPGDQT

P38b/MAPK11 = P38b/MAPK11 (Homo sapiens, UniProt Q15759); conditions: 1 μM; Run 1, Run 2
Chain of P38b/MAPK11 (Q15759 whole entry): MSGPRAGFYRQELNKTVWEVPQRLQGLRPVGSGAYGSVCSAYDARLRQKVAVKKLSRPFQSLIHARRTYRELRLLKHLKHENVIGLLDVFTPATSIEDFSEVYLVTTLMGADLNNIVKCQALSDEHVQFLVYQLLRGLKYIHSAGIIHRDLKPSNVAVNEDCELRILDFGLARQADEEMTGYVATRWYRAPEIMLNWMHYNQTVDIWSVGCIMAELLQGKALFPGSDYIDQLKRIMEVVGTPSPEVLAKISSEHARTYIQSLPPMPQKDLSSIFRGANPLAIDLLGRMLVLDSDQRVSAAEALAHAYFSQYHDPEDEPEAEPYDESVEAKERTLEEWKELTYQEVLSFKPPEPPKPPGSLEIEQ

Chain of c-Src (P12931 whole entry): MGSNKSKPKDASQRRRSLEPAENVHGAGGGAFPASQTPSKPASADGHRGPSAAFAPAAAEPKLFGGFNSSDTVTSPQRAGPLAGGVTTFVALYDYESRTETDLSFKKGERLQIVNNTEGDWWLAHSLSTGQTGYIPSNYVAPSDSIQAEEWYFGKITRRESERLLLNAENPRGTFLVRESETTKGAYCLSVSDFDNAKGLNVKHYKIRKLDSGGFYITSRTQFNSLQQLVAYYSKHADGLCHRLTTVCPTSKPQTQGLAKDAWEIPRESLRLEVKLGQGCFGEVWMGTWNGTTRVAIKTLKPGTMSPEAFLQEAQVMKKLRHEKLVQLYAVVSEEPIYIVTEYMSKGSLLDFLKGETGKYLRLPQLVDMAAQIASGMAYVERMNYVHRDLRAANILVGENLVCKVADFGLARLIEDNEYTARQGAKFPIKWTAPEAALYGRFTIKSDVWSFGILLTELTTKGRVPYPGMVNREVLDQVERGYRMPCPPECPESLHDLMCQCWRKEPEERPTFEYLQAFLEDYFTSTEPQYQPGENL
Chain of CDK19/cyclin C (Q9BWU1 whole entry): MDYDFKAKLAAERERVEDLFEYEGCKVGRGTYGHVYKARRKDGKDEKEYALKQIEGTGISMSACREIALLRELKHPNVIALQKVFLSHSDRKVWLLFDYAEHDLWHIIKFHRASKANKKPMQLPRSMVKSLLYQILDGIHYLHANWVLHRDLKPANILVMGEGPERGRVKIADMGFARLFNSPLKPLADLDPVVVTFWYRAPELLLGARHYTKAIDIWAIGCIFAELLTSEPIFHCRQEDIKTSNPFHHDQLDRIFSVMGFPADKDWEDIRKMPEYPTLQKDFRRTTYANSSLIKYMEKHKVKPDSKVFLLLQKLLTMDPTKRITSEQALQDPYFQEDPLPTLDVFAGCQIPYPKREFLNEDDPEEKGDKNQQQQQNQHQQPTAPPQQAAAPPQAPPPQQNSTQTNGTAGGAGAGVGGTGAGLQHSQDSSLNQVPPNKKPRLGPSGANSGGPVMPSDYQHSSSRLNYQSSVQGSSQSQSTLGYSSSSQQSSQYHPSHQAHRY
Chain of CDK19/cyclin C (P24863 whole entry partner): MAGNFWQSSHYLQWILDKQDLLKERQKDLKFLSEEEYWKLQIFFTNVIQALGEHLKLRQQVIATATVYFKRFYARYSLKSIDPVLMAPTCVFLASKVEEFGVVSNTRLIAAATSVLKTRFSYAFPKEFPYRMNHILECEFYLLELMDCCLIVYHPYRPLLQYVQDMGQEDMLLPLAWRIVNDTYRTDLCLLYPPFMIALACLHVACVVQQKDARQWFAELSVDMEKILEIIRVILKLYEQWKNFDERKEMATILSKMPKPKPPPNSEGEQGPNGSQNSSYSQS

**Q.** Which results are given for COc1cc(-c2cncc(-c3ccc(N4CCN(C)CC4)cc3)c2C)cc(F)c1C(N)=O [Compound 26a, 2-Fluoro-6-methoxy-4-(4-methyl-5-(4-(4-methylpiperazin-1-yl)phenyl)pyridin-3-yl)benzamide]?
**A.** remaining activity at 1 µM (c-Src): 96.6%; % enzyme activity (CDK19/cyclin C): 77.81%; remaining activity at 1 µM (NEK7): 97.6%; % enzyme activity (LATS1): 97.31%; % enzyme activity (CDK5/p35): 95.26%; % enzyme activity (CK1g1): 55.41%; remaining activity at 1 µM (PKCiota): 107%; % enzyme activity (CAMK1a): 92.25%; remaining activity at 1 µM (GRK7): 95.1%; % enzyme activity (FGR): 74.69%; % enzyme activity (P38b/MAPK11): 92.20%

**Q.** Which remaining activity at 1 µM (c-Src) does the source give for COc1cc(-c2cncc(-c3ccc(N4C[C@@H](C)N(C)[C@@H](C)C4)cc3)c2C)cc(F)c1C(N)=O [Compound 26c, 2-Fluoro-6-methoxy-4-(4-methyl-5-(4-((3R,5S)-3,4,5-trimethylpiperazin-1-yl)phenyl)pyridin-3-yl)benzamide] here?
**A.** Its remaining activity at 1 µM is 100%.

**Q.** What about the “% enzyme activity” value (CDK19/cyclin C) of the same compound?
**A.** The value was 85.09%.

**Q.** And the remaining activity at 1 µM (NEK7)?
**A.** Its remaining activity at 1 µM is 97.4%.

**Q.** What about the “% enzyme activity” value (LATS1) of the same compound?
**A.** The value was 100.53%.

**Q.** What about the “% enzyme activity” value (CDK5/p35) of the same compound?
**A.** Its value is 96.90%.

**Q.** And the “% enzyme activity” value (CK1g1)?
**A.** The value was 69.61%.

**Q.** And the remaining activity at 1 µM (PKCiota)?
**A.** Its remaining activity at 1 µM is 99.1%.

**Q.** And the “% enzyme activity” value (CAMK1a)?
**A.** The value was 96.82%.

**Q.** And the remaining activity at 1 µM (GRK7)?
**A.** Its remaining activity at 1 µM is 91.8%.

**Q.** And the “% enzyme activity” value (FGR)?
**A.** The value was 86.35%.

**Q.** And the “% enzyme activity” value (P38b/MAPK11)?
**A.** Its value is 95.51%.
